US10173991B2, “Sulfone amide linked benzothiazole inhibitors of endothelial lipase” (BRISTOL-MYERS SQUIBB COMPANY, priority 2014, dated 2019)
Where two headings read alike, the source gives them in different places.

Biological target: Endothelial lipase (EL) (Homo sapiens (Human), UniProt Q9Y5X9)
Assay: Endothelial lipase (EL) enzymatic assay with fluorescent substrate A10070 in DMPG vesicles
Assay type: biochemical
How it was run: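 Substrate A10070 sits in sonicated DMPG vesicles at 0.11 mole fraction. Lipase and compound preincubated 30 min, 37° C, in HEPES pH 8.0 buffer with CaCl2.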

[1] = EL from conditioned media of HT-1080 cells, 30 min preincubation at 37° C.

Chain of Endothelial lipase (EL) (Q9Y5X9 21-500): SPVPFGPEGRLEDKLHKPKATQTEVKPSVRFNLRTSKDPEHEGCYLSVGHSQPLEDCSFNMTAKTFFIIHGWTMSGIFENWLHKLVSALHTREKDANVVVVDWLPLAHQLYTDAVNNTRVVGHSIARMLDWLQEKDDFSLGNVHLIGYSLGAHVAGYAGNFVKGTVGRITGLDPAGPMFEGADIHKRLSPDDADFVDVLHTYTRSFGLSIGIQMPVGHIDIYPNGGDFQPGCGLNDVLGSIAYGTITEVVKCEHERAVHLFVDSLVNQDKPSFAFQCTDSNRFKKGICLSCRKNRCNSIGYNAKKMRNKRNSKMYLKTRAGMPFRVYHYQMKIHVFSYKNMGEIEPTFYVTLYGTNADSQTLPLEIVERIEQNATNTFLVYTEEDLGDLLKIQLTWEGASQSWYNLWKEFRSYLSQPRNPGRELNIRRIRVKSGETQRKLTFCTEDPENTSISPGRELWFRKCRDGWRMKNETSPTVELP

Row | SMILES | IC50 | IC50 [1]
1 | CN(C)S(=O)(=O)C(C(=O)NCC(=O)NC1CC1)c1nc2c(F)cc(-c3cccc(NC(=O)OCc4ccccc4)c3)cc2s1 (stereo not drawn) [Example 502, benzyl N-{3-[2-({[(cyclopropyl-carbamoyl)methyl]carbamoyl} (dimethyl-sulfamoyl)methyl)-4-fluoro-1,3-benzothiazol-6-yl]phenyl} carbamate] | 2 nM | –
2 | COC(=O)Nc1cccc(-c2cc(F)c3nc(C(C(=O)NCC(=O)NC4CC4)S(=O)(=O)N(C)C)sc3c2)c1 (stereo not drawn) [Example 503, methyl N-{3-[2-({[(cyclopropyl-carbamoyl)methyl]carbamoyl} (dimethyl-sulfamoyl)methyl)-4-fluoro-1,3-benzothiazol-6-yl]phenyl} carbamate] | 21 nM | –
3 | CN(C)S(=O)(=O)C(C(=O)NCC(=O)NC1CC1)c1nc2c(F)cc(-c3ccc(-c4nnn[nH]4)cc3)cc2s1 (stereo not drawn) [Example 504, N-[(cyclopropyl-carbamoyl)methyl]-2-(dimethyl-sulfamoyl)-2-{4-fluoro-6-[4-(1H-1,2,3,4-tetrazol-5-yl)phenyl]-1,3-benzothiazol-2-yl}acetamide] | 10 nM | –
4 | CN(C)S(=O)(=O)C(C(=O)NCC(=O)NC1CC1)c1nc2c(F)cc(-c3cccc(-n4cccn4)c3)cc2s1 (stereo not drawn) [Example 505, N-[(cyclopropyl-carbamoyl)methyl]-2-(dimethyl-sulfamoyl)-2-{4-fluoro-6-[3-(1H-pyrazol-1-yl)phenyl]-1,3-benzothiazol-2-yl}acetamide] | 130 nM | –
5 | CN(C)S(=O)(=O)C(C(=O)NCC(=O)NC1CC1)c1nc2cc(F)c(-c3cccc(-n4cccn4)c3)cc2s1 (stereo not drawn) [Example 506, N-[(cyclopropyl-carbamoyl)methyl]-2-(dimethyl-sulfamoyl)-2-{5-fluoro-6-[3-(1H-pyrazol-1-yl)phenyl]-1,3-benzothiazol-2-yl} acetamide] | 52 nM | –
6 | CN(C)S(=O)(=O)C(C(=O)NCC(=O)NC1CC1)c1nc2cc(F)c(-c3ccc(-c4ccccc4)nc3)cc2s1 (stereo not drawn) [Example 507, N-[(cyclopropyl-carbamoyl)methyl]-2-(dimethyl-sulfamoyl)-2-[5-fluoro-6-(6-phenylpyridin-3-yl)-1,3-benzothiazol-2-yl]acetamide] | 16 nM | –
7 | CN(C)S(=O)(=O)C(C(=O)NCC(=O)NC1CC1)c1nc2cc(F)c(-c3ccc(-c4ccccn4)cc3)cc2s1 (stereo not drawn) [Example 508, N-[(cyclopropyl-carbamoyl)methyl]-2-(dimethyl-sulfamoyl)-2-{5-fluoro-6-[4-(pyridin-2-yl)phenyl]-1,3-benzothiazol-2-yl}acetamide] | 15 nM | –
8 | O=C(CNC(=O)C(c1nc2ccc(-c3ccc(F)nc3)cc2s1)S(=O)(=O)CCO)NC1CC1 (stereo not drawn) [Example 509, N-[(Cyclopropylcarbamoyl)methyl]-2-[6-(6-fluoropyridin-3-yl)-1,3-benzothiazol-2-yl]-2-(2-hydroxyethanesulfonyl)acetamide] | – | 280 nM
9 | CS(=O)(=O)C(C(=O)NCC(=O)NC1CC1)c1nc2cc(F)c(-c3ccc(NC(=O)OCc4ccccn4)cc3)cc2s1 (stereo not drawn) [Example 510, Pyridin-2-ylmethyl (4-(2-(2-((2-(cyclopropylamino)-2-oxoethyl)amino)-1-(methylsulfonyl)-2-oxoethyl)-5-fluorobenzo[d]thiazol-6-yl)phenyl)carbamate] | – | 1.3 nM
10 | O=C(CNC(=O)C(c1nc2cc(F)c(-c3ccc(NC(=O)NCc4ccccc4)cc3)cc2s1)S(=O)(=O)CCC(F)(F)F)NC1CC1 (stereo not drawn) [Example 511, 2-(6-{4-[(benzyl-carbamoyl)amino]phenyl}-5-fluoro-1,3-benzothiazol-2-yl)-N-[(cyclopropyl-carbamoyl)methyl]-2-(3,3,3-trifluoropropane-sulfonyl)acetamide] | 1 nM | –
11 | O=C(CNC(=O)C(c1nc2ccc(-c3ccc(F)nc3)cc2s1)S(=O)(=O)Cc1ccc(C(F)(F)F)cc1)NC1CC1 (stereo not drawn) [Example 512, N-[(cyclopropyl-carbamoyl)methyl]-2-[6-(6-fluoropyridin-3-yl)-1,3-benzothiazol-2-yl]-2-{[4-(trifluoromethyl)phenyl]methanesulfonyl} acetamide] | 16 nM | –
12 | O=C(CNC(=O)C(c1nc2ccc(-c3ccc(F)nc3)cc2s1)S(=O)(=O)Cc1ccc(OC(F)(F)F)cc1)NC1CC1 (stereo not drawn) [Example 513, N-[(cyclopropyl-carbamoyl)methyl]-2-[6-(6-fluoropyridin-3-yl)-1,3-benzothiazol-2-yl]-2-{[4-(trifluoromethoxy)phenyl]methanesulfonyl} acetamide] | 20 nM | –
13 | COCCS(=O)(=O)C(C(=O)NCC(=O)NC1CC1)c1nc2c(F)cc(-c3ccc(F)nc3)cc2s1 (stereo not drawn) [Example 514, N-[(cyclopropyl-carbamoyl)methyl]-2-[4-fluoro-6-(6-fluoropyridin-3-yl)-1,3-benzothiazol-2-yl]-2-(2-methoxyethane-sulfonyl)acetamide] | 43 nM | –
14 | O=C(CNC(=O)C(c1nc2ccc(-c3ccc(F)nc3)cc2s1)S(=O)(=O)Cc1ccc(F)cc1)NC1CC1 (stereo not drawn) [Example 515, N-[(cyclopropyl-carbamoyl)methyl]-2-[(4-fluorophenyl)methanesulfonyl]-2-[6-(6-fluoropyridin-3-yl)-1,3-benzothiazol-2-yl]acetamide] | 48 nM | –
15 | CC(C)CS(=O)(=O)C(C(=O)NCC(=O)NC1CC1)c1nc2ccc(-c3ccc(F)nc3)cc2s1 (stereo not drawn) [Example 516, N-[(cyclopropyl-carbamoyl)methyl]-2-[6-(6-fluoropyridin-3-yl)-1,3-benzothiazol-2-yl]-2-(2-methylpropane-sulfonyl)acetamide] | 57 nM | –
16 | O=C(CNC(=O)C(c1nc2ccc(-c3cncnc3)cc2s1)S(=O)(=O)Cc1ccc(F)cc1)NC1CC1 (stereo not drawn) [Example 517, N-[(cyclopropyl-carbamoyl)methyl]-2-[(4-fluorophenyl)methanesulfonyl]-2-[6-(pyrimidin-5-yl)-1,3-benzothiazol-2-yl]acetamide] | 117 nM | –
17 | COCCS(=O)(=O)C(C(=O)NCC(=O)NC1CC1)c1nc2cc(F)c(-c3ccc(NC(=O)OCc4ccccn4)cc3)cc2s1 (stereo not drawn) [Example 519, pyridin-2-ylmethyl N-{4-[2-({[(cyclopropyl-carbamoyl)methyl]carbamoyl}(2-methoxyethane-sulfonyl)methyl)-5-fluoro-1,3-benzothiazol-6-yl]phenyl}carbamate] | 2 nM | –
18 | O=C(CNC(=O)C(c1nc2cc(F)c(-c3ccc(NC(=O)OCc4ccccn4)cc3)cc2s1)S(=O)(=O)CCC(F)(F)F)NC1CC1 (stereo not drawn) [Example 520, pyridin-2-ylmethyl N-{4-[2-({[(cyclopropyl-carbamoyl)methyl]carbamoyl}(3,3,3-trifluoropropane-sulfonyl)methyl)-5-fluoro-1,3-benzothiazol-6-yl]phenyl}carbamate] | 2 nM | –
19 | N#Cc1cccc(COC(=O)Nc2ccc(-c3cc4sc(C(C(=O)NCC(=O)NC5CC5)S(=O)(=O)C5CC5)nc4cc3F)cc2)c1 (stereo not drawn) [Example 521, (3-cyanophenyl) methyl N-(4-{2-[(cyclopropane-sulfonyl) ({[(cyclopropyl-carbamoyl)methyl]carbamoyl}methyl]-5-fluoro-1,3-benzothiazol-6-yl}phenyl) carbamate] | 3 nM | –
20 | N#Cc1cccc(COC(=O)Nc2ccc(-c3cc4sc(C(C(=O)NCC(=O)NC5CC5)S(=O)(=O)CCC(F)(F)F)nc4cc3F)cc2)c1 (stereo not drawn) [Example 522, (3-cyanophenyl) methyl N-{4-[2-({[(cyclopropyl-carbamoyl)methyl]carbamoyl}(3,3,3-trifluoropropane-sulfonyl)methyl)-5-fluoro-1,3-benzothiazol-6-yl]phenyl} carbamate] | 1 nM | –
21 | O=C(CNC(=O)C(c1nc2cc(F)c(-c3ccc(NC(=O)OCc4nccs4)cc3)cc2s1)S(=O)(=O)CCC(F)(F)F)NC1CC1 (stereo not drawn) [Example 523, 1,3-thiazol-2-ylmethyl N-{4-[2-({[(cyclopropyl-carbamoyl)methyl]carbamoyl}(3,3,3-trifluoropropane-sulfonyl)methyl)-5-fluoro-1,3-benzothiazol-6-yl]phenyl} carbamate] | 6 nM | –
22 | COCCS(=O)(=O)C(C(=O)NCC(=O)NC1CC1)c1nc2cc(F)c(-c3ccc(NC(=O)OCc4nccs4)cc3)cc2s1 (stereo not drawn) [Example 524, 1,3-thiazol-2-ylmethyl N-{4-[2-({[(cyclopropyl-carbamoyl)methyl]carbamoyl}(2-methoxyethane-sulfonyl)methyl)-5-fluoro-1,3-benzothiazol-6-yl]phenyl} carbamate] | 13 nM | –
23 | COCCS(=O)(=O)C(C(=O)NCC(=O)NC1CC1)c1nc2cc(F)c(-c3ccc(NC(=O)OCC4CC4)cc3)cc2s1 (stereo not drawn) [Example 525, Cyclopropylmethyl N-{4-[2-({[(cyclopropylcarbamoyl)methyl]carbamoyl}(2-methoxyethanesulfonyl)methyl)-5-fluoro-1,3-benzothiazol-6-yl]phenyl}carbamate] | – | 0.5 nM
24 | COCCS(=O)(=O)C(C(=O)NCC(=O)NC1CC1)c1nc2cc(F)c(-c3ccc(NC(=O)OCC(F)(F)F)cc3)cc2s1 (stereo not drawn) [Example 526, 2,2,2-trifluoroethyl N-{4-[2-({[(cyclopropyl-carbamoyl)methyl]carbamoyl}(2-methoxyethane-sulfonyl)methyl)-5-fluoro-1,3-benzothiazol-6-yl]phenyl} carbamate] | 1 nM | –
25 | CS(=O)(=O)C(C(=O)NCC(=O)NC1CC1)c1nc2cc(F)c(-c3ccc(NC(=O)OCC4CC4)cc3)cc2s1 (stereo not drawn) [Example 527, cyclopropylmethyl N-{4-[2-({[(cyclopropyl-carbamoyl)methyl]carbamoyl}) (methanesulfonyl)methyl)-5-fluoro-1,3-benzothiazol-6-yl]phenyl} carbamate] | 9 nM | –
26 | CC(C)S(=O)(=O)C(C(=O)NCC(=O)NC1CC1)c1nc2cc(F)c(-c3ccc(NC(=O)OCC4CC4)cc3)cc2s1 (stereo not drawn) [Example 528] | 1 nM | –
27 | O=C(CNC(=O)C(c1nc2cc(F)c(-c3ccc(NC(=O)OCC(F)(F)F)cc3)cc2s1)S(=O)(=O)CCC(F)(F)F)NC1CC1 (stereo not drawn) [Example 529, 2,2,2-trifluoroethyl N-{4-[2-({[(cyclopropyl-carbamoyl)methyl]carbamoyl}(3,3,3-trifluoropropane-sulfonyl)methyl)-5-fluoro-1,3-benzothiazol-6-yl]phenyl} carbamate] | 2 nM | –
